IC50 data for 21 compounds are collected here from US20120270844A1, “METHODS FOR TREATING ALZHEIMER'S DISEASE” (aFRAXis, Inc., priority 2009, published 2012).

Common to all, as to format: biochemical
One experiment addresses PAK1 (Homo sapiens, UniProt Q13153). The experiment in a line: Z'Lyte fluorescence-based (FRET) PAK kinase assay, PAK1. The settings on record: 50 μM ATP. The procedure, abridged: (§1)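 Z'Lyte FRET assay: purified PAK with 2 uM Ser/Thr20 peptide in 50 mM HEPES pH 7.5, 10 mM MgCl2, 1% DMSO, ATP at apparent Km (PAK1 50 μM, PAK2 75 μM, PAK3 100 μM, PAK4 5 μM), 1 h room temperature, then 1 h protease development. Inhibition from 445/520 nm emission ratio; IC50 values.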

For a further experiment, the target named is PAK2 (Homo sapiens, UniProt Q13177). In words: Z'Lyte fluorescence-based (FRET) PAK kinase assay, PAK2. The procedure, abridged: as §1
The target of a further experiment is PAK3 (Homo sapiens, UniProt O75914). In words: Z'Lyte fluorescence-based (FRET) PAK kinase assay, PAK3. The settings on record: 100 μM ATP. The procedure:
A fluorescence-based assay format is used to determine IC50 values of test compounds in vitro. Purified PAK kinase is incubated with ATP, and a test compound at various concentrations and a substrate peptide containing two fluorophores. In a second step, the reaction mix is incubated with a site-specific protease that cleaves non-phosphorylated bat not phosphorylated substrate peptide, disrupting the FRET signal generated by the two fluorophores in the cleaved peptide (Z′Lyte™ Kinase assay platform; Life Technologies).
Reagents: 50 mM HEPES, pH 7.5; 0.01% BRIJ-35; […]; 1 mM EGTA, 2 uM substrate peptide Ser/Thr20 (proprietary Life Technologies Sequence), PAK enzyme [2.42-30.8 ng for PAK1, 0.29-6 ng for PAK2, 1.5-20 ng for PAK3 and 0.1-0.86 ng for PAK4; actual enzyme amounts depend on lot activity of the enzyme preparation]
Test compounds are dissolved in DMSO at various concentrations; the final DMSO concentration in the assay reaction is 1%.
ATP concentration at […] apparent is used in the assay [50 ┌M ATP for PAK1 assay, 75 ┌M ATP for PAK2 assay, 100 μM ATP for PAK3 assay, 5 μM ATP for PAK4 assay] in a total assay volume of 10 μl. Assay reactions are incubated at room temperature for 1 hr. Following the kinase reaction, 5 μl of 1:256 dilution of development solution A (Life Technologies) is added and the reaction mix is incubated for an additional 1 hr at room temperature.
Plates are analyzed in a standard fluorescence plate reader (Tecan or equivalent) using an excitation wavelength of 400 nn and emission wavelengths of 445 nm and 520 nm.
Inhibition of kinase reaction is determined by emission ratio=emission@445 nm/emission@520 nm
A fluorescence-based assay format is used to determine IC50 values of test compounds in vitro. Purified PAK kinase is incubated with ATP, and a test compound at various concentrations and a substrate peptide containing two fluorophores. In a second step, the reaction mix is incubated with a site-specific protease that cleaves non-phosphorylated but not phosphorylated substrate peptide, disrupting the FRET signal generated by the two fluorophores in the cleaved peptide (Z'Lyte™ Kinase assay platform Life Technologies).
Reagents: 50 mM HEPES, pH 7.5; 0.01% BRIJ-35; 10 mM MgCl2; 1 mM EGTA, 2 uM substrate peptide Ser/Thr20 (proprietary Life Technologies Sequence), PAK enzyme [2.42-30.8 ng for PAK1, 0.29-6 ng for PAK2, 1.5-20 ng for PAK3 and 0.1-0.86 ng for PAK4; actual enzyme amounts depend on lot activity of the enzyme preparation]
ATP concentration at Km apparent is used in the assay [50 μMATP for PAK1 assay, 75 µM ATP for PAK2 assay, 100 μM ATP for PAK3 assay, 5 μM ATP for PAK4 assay] in a total assay volume of […] Assay reactions are incubated at room temperature for 1 hr. Following the kinase reaction. […] of 1:256 dilution of development solution A (Life Technologies) is added and the reaction mix is incubated for an additional 1 hr at room temperature.
Plates are analyzed in a standard fluorescence plate reader (Teem or equivalent) using an excitation wavelength of 400 nm and emission wavelengths of 445 nm and 520 nm.

For another experiment, the target named is PAK4 (Homo sapiens, UniProt O96013). In words: Z'Lyte fluorescence-based (FRET) PAK kinase assay, PAK4. To be noted: 5 μM ATP. In short, it runs like this:
as §1

Setting [1] is: Table 1 of Example 100, 75 μM ATP.
Where [2] appears, read: Table 1 of Example 29 (own compound numbering).
Where [3] appears, read: Table 1 of Example 29 (own compound numbering), 75 µM ATP.

Sequence of PAK2 (Q13177 whole entry): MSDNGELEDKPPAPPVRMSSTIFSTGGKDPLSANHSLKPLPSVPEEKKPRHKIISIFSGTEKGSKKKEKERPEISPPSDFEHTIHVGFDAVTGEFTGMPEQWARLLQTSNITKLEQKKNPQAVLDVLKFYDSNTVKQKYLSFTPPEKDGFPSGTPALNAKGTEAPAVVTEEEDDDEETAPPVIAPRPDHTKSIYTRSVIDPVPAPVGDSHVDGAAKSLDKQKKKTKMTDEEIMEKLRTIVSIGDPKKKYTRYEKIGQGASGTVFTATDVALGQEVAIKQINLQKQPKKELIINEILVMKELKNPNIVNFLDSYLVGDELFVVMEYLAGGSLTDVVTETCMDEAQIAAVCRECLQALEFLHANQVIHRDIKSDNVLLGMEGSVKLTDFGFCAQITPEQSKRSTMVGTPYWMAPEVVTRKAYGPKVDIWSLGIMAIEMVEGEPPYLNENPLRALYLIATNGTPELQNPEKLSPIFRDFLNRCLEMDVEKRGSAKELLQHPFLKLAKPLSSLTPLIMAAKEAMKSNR
Sequence of PAK1 (Q13153 whole entry): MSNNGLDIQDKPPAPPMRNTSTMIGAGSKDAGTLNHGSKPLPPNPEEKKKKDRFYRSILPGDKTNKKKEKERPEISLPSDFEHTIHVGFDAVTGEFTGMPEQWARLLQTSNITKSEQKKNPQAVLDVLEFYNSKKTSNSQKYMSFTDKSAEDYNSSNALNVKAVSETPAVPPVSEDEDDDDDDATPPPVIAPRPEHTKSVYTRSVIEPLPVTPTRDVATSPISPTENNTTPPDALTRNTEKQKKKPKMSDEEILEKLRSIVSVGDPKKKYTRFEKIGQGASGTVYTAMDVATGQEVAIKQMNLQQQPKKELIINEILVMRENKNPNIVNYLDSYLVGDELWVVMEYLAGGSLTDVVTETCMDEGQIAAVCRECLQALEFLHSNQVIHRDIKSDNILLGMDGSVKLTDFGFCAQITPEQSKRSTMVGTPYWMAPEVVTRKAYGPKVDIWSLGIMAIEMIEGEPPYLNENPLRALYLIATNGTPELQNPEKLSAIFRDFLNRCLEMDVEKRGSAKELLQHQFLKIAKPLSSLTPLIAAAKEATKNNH
Sequence of PAK3 (O75914 whole entry): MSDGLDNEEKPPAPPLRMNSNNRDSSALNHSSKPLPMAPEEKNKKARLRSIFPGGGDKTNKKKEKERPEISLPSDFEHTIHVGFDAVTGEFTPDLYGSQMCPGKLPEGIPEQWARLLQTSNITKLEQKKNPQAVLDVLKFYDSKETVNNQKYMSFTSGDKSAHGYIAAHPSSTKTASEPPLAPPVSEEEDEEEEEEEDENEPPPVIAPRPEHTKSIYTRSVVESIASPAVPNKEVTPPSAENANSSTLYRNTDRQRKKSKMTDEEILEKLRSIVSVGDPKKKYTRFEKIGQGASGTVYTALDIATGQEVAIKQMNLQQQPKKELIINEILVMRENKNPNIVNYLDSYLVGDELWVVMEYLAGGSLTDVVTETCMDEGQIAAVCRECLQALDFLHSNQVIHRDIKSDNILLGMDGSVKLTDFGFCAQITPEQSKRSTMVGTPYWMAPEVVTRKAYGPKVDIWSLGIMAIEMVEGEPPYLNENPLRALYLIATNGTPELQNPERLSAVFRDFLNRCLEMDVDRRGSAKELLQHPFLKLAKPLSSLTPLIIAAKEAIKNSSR
Sequence of PAK4 (O96013 whole entry): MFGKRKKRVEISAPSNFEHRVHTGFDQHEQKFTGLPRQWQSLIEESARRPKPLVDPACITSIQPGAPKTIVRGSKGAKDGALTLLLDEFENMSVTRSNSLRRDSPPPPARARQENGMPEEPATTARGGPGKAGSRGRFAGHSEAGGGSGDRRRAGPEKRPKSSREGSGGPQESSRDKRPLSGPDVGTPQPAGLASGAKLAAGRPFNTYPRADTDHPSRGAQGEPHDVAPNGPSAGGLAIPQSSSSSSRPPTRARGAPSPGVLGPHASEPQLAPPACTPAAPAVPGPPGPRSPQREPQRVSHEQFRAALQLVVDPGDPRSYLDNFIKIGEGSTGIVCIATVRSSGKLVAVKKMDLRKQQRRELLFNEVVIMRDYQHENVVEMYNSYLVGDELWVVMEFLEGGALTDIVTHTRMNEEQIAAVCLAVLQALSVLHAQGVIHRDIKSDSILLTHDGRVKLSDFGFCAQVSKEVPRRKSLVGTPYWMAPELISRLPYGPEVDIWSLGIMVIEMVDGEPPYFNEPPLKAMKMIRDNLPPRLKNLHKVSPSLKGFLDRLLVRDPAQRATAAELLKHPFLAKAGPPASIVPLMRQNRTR

As for `CN1CCN(c2ccc(Nc3ncc4ccc(=O)n(CC(=O)c5ccccc5)c4n3)cc2)CC1` [Compound 50], the 50% inhibitory concentration (IC50) on PAK1 (Table 1 of Example 100), at PAK2 (setting [1]), against PAK3 (Table 1 of Example 100) and at PAK4 (Table 1 of Example 100) was 1 to 10 µM in each case.
Turning to `Cc1cccnc1Cn1c(=O)ccc2cnc(Nc3ccc(N4CCN(C)CC4)cc3)nc21` [Compound 52], the IC50 on PAK1 (Table 1 of Example 100) is 1 to 10 µM; against PAK2 (setting [1]) it was 1 to 10 µM; on PAK3 (Table 1 of Example 100), above 10 µM; against PAK4 (Table 1 of Example 100), 1 to 10 µM.
As for `CN1CCN(c2ccc(Nc3ncc4ccc(=O)n(Cc5ccccc5-n5cccn5)c4n3)cc2)CC1` [Compound 53], the IC50 against PAK1 (Table 1 of Example 100) is below 1 µM; at PAK2 (setting [1]), 1 to 10 µM; against PAK3 (Table 1 of Example 100), 1 to 10 µM; at PAK4 (Table 1 of Example 100), 1 to 10 µM.
As for `COc1ccc(F)cc1Cn1c(=O)ccc2cnc(Nc3ccc(N4CCN(C)CC4)cc3)nc21` [Compound 54], the half-maximal inhibitory concentration (IC50) against PAK1 (Table 1 of Example 100) is below 1 µM; against PAK2 (setting [1]) it was 1 to 10 µM; against PAK3 (Table 1 of Example 100), 1 to 10 µM; on PAK4 (Table 1 of Example 100), 1 to 10 µM.
For the compound `CC(c1ccccc1)n1c(=O)ccc2cnc(Nc3ccc(N4CCN(C)CC4)cc3)nc21` (stereo not drawn) [Compound 102], the IC50 at PAK1 (setting [2]) is 1 to 10 µM; against PAK2 (setting [3]), 1 to 10 µM; against PAK3 (setting [2]), above 10 µM; against PAK4 (setting [2]), 1 to 10 µM.
`CN1CCN(c2ccc(Nc3ncc4ccc(=O)n(CCc5ccccc5)c4n3)cc2)CC1` [Compound 103]: the half-inhibitory concentration (IC50) was below 1 µM against PAK1 (setting [2]), below 1 µM on PAK2 (setting [3]), 1 to 10 µM on PAK3 (setting [2]) and below 1 µM at PAK4 (setting [2]).
Regarding `CN1CCN(c2ccc(Nc3ncc4ccc(=O)n(CC(=O)c5ccccc5)c4n3)cc2)CC1` [Compound 104], the IC50 against PAK1 (setting [2]), against PAK2 (setting [3]), against PAK3 (setting [2]) and against PAK4 (setting [2]) was 1 to 10 µM throughout.
`Cc1cccnc1Cn1c(=O)ccc2cnc(Nc3ccc(N4CCN(C)CC4)cc3)nc21` [Compound 106]: the IC50 was 1 to 10 µM at PAK1 (setting [2]), 1 to 10 µM against PAK2 (setting [3]), above 10 µM against PAK3 (setting [2]) and 1 to 10 µM against PAK4 (setting [2]).
Take `CN1CCN(c2ccc(Nc3ncc4ccc(=O)n(Cc5ccccc5-n5cccn5)c4n3)cc2)CC1` [Compound 107]: the IC50 against PAK1 (setting [2]) was below 1 µM; against PAK2 (setting [3]) it was 1 to 10 µM; against PAK3 (setting [2]), 1 to 10 µM; against PAK4 (setting [2]), 1 to 10 µM.
Consider `COc1ccc(F)cc1Cn1c(=O)ccc2cnc(Nc3ccc(N4CCN(C)CC4)cc3)nc21` [Compound 108], for which the IC50 against PAK1 (setting [2]) is below 1 µM; at PAK2 (setting [3]), 1 to 10 µM; on PAK3 (setting [2]) it was 1 to 10 µM; on PAK4 (setting [2]), 1 to 10 µM.
For the compound `CN1CCN(c2ccc(Nc3ncc4ccc(=O)n(Cc5c(O)cccc5Cl)c4n3)cc2)CC1` [Compound 109], the half-inhibitory concentration (IC50) on PAK1 (setting [2]) was below 1 µM; on PAK2 (setting [3]) it was below 1 µM; against PAK3 (setting [2]), 1 to 10 µM; against PAK4 (setting [2]), below 1 µM.
On to `CN1CCCC(Nc2ccc(Nc3ncc4ccc(=O)n(Cc5ccccc5C(F)(F)F)c4n3)cc2)C1` (stereo not drawn) [Compound 115], for which the IC50 on PAK1 (setting [2]), against PAK2 (setting [3]), at PAK3 (setting [2]) and on PAK4 (setting [2]) was below 1 µM each time.
As to `Cc1ccccc1Cn1c(=O)ccc2cnc(Nc3ccc(N4CCN(C)CC4)cc3)nc21` [Compound 117], the half-inhibitory concentration (IC50) against PAK1 (setting [2]), at PAK2 (setting [3]), against PAK3 (setting [2]) and on PAK4 (setting [2]) was below 1 µM in each case.
As to `Cc1cccc(O)c1Cn1c(=O)ccc2cnc(Nc3ccc(N4CCN(C)CC4)cc3)nc21` [Compound 119], the IC50 is below 1 µM against PAK1 (setting [2]), 1 to 10 µM at PAK2 (setting [3]), 1 to 10 µM on PAK3 (setting [2]) and below 1 µM against PAK4 (setting [2]).
On to `CN1CCN(c2ccc(Nc3ncc4ccc(=O)n(Cc5ccccc5-c5ncno5)c4n3)cc2)CC1` [Compound 127], for which the 50% inhibitory concentration (IC50) against PAK1 (setting [2]) is below 1 µM; on PAK2 (setting [3]), 1 to 10 µM; on PAK3 (setting [2]) it was 1 to 10 µM; at PAK4 (setting [2]), 1 to 10 µM.
Take `O=c1ccc2cnc(Nc3ccc(N4CCNCC4)c(F)c3)nc2n1Cc1ccccc1-c1ncno1` [Compound 132]: the IC50 against PAK1 (setting [2]) was below 1 µM; at PAK2 (setting [3]) it was 1 to 10 µM; on PAK3 (setting [2]), 1 to 10 µM; against PAK4 (setting [2]) it was 1 to 10 µM.
With `CN1CCN(c2ccc(Nc3ncc4ccc(=O)n(Cc5c(F)cccc5[S+](C)[O-])c4n3)cc2)CC1` (stereo not drawn) [Compound 139], the IC50 on PAK1 (setting [2]) was below 1 µM; on PAK2 (setting [3]), 1 to 10 µM; on PAK3 (setting [2]), below 1 µM; at PAK4 (setting [2]), 1 to 10 µM.
As to `O=c1c(-c2ccccc2)cc2cnc(Nc3ccc(NC4CCCNC4)cc3)nc2n1Cc1ccccc1C(F)(F)F` (stereo not drawn) [Compound 167], the IC50 on PAK1 (setting [2]) is below 1 µM; against PAK2 (setting [3]), below 1 µM; on PAK3 (setting [2]), below 1 µM; at PAK4 (setting [2]), 1 to 10 µM.
Consider `CN1CCCC(Nc2ccc(Nc3ncc4ccc(=O)n(Cc5ccccc5C(F)(F)F)c4n3)cc2)C1` (stereo not drawn) [compound 61], for which the IC50 against PAK1 (Table 1 of Example 100), against PAK2 (setting [1]), at PAK3 (Table 1 of Example 100) and at PAK4 (Table 1 of Example 100) was below 1 µM throughout.
For `O=c1ccc2cnc(Nc3ccc(N4CCNCC4)cc3)nc2n1C1CCCc2ccccc21` (stereo not drawn) [compound 61], the IC50 at PAK1 (setting [2]), against PAK2 (setting [3]), against PAK3 (setting [2]) and on PAK4 (setting [2]) was 1 to 10 µM throughout.
As to `O=c1c(-c2ccccc2)cc2cnc(Nc3ccc(NC4CCCNC4)cc3)nc2n1Cc1ccccc1C(F)(F)F` (stereo not drawn) [compound 95], the 50% inhibitory concentration (IC50) at PAK1 (Table 1 of Example 100) is below 1 µM; at PAK2 (setting [1]) it was below 1 µM; on PAK3 (Table 1 of Example 100), below 1 µM; against PAK4 (Table 1 of Example 100), 1 to 10 µM.
